In US6316495A, “Method for inhibition of retroviral replication” (priority 1999, dated 2001):
Blank lines part the entries; values can stand above or below the compound they belong to.

Tests used:
Type in all cases: biochemical
[1] = tested on: recombinant human HIV reverse transcriptase; experiment: Activation of HIV reverse transcriptase by auto-(ADP-ribosylated) ADPRT (FIG. 2, Example 3); conditions: 0.5 μM ADPRT, no NAD
Experimental: Such abrogation and its time dependency is further illustrated in FIG. 2 wherein the activation of HIV reverse transcriptase by auto-ADP-ribosylated ADPRT is expressed as % of reverse transcriptase activity. The experimental conditions are as described in Example 3. […] Samples in columns 3-5 were incubated for time periods as indicated.
The medium (coctail) comprises 50 mM Tris-HCl pH 8.0; 60 mM KCl; 7 mM MgCl2; 40 mM DTT (dithiothreitol) 2 mM GSH (glutathione); 60 μg/ml whole histones/ml (Grade A, Sigma, St. Louis); poly (rA) oligo (dT)12-18 (Pharmacia, Piscataway, N. J.) and 50 μM M(0.1 μCalif.) [alfa ^32 P]TTP (ICN, Irvine, CA.) (Reverse transcriptase uses poly(rA) as template and the annealed oligo(dT) as primer for incorporating the labeled TTP). […]
The reaction was stopped by adding 2 ml of ice cold 20% trichloroacetic acid and the precipitated nucleic acids were filtered onto glass fiber filters, dried with ethanol and their incorporated radioactivity counted in a liquid scintillation counter. […]
The mixture was incubated at 25° C. for 5, 10 and 25 minutes, then the recombinant reverse transcriptase was added and the mixture was incubated for additional 5 minutes. The reaction was stopped, as described above, the precipitate was filtered and radioactivity counted.

[2] = tested on: HIV reverse transcriptase; experiment: HIV reverse transcriptase activity with ADPRT, poly-ADP-ribosylated ADPRT and drug inhibitors of poly-ADP-ribosylation (FIG. 3, Example 4); conditions: for HIV reverse transcriptase activity: absence of ADPRT
Experimental: Reverse transcriptase activity assay conditions were as described in Example 1. NAD was added in a concentration of 62.5 μM and ADPRT in a concentration of 0.5 μM. Inhibitors 6-amino-1,2-benzopyrone (6-ABP) or 5-iodo-6-amino-1,2-benzopyrone (5-I-6-ABP) were added in concentrations 1000 μM, and 400 μM, respectively.
(§1) The medium (coctail) comprises 50 mM Tris-HCl pH 8.0; 60 mM KCl; 7 mM MgCl2; 40 mM DTT (dithiothreitol) 2 mM GSH (glutathione); 60 μg/ml whole histones/ml (Grade A, Sigma, St. Louis); poly (rA) oligo (dT)12-18 (Pharmacia, Piscataway, N. J.) and 50 μM M(0.1 μCalif.) [alfa ^32 P]TTP (ICN, Irvine, CA.) (Reverse transcriptase uses poly(rA) as template and the annealed oligo(dT) as primer for incorporating the labeled TTP).
(§2) The reverse polymerization was started by adding 0.02 μg of recombinant reverse transcriptase protein (ERC BioServices, Rockville, Md.) into 50 μl of coctail. The reaction mixture incubated at 25° C. for 5 minutes.
(§3) The reaction was stopped by adding 2 ml of ice cold 20% trichloroacetic acid and the precipitated nucleic acids were filtered onto glass fiber filters, dried with ethanol and their incorporated radioactivity counted in a liquid scintillation counter.
Using generally the reverse transcriptase procedure described in Example 1, three groups of samples were prepared. The first group contained the coctail described in the Example 1 containing poly (rA).cndot.oligo (dT)12-18 as a template and drugs 6-ABP or 5-I-6-ABP in concentration 1,000 μM and 400 μM, respectively, without the presence of ADPRT.
The second group contained the same ingredients as group 1 but ADPRT at a concentration to 0.5 μM was added to all samples.
The third group contained the same ingredients as group 2 but NAD in a concentration of 62.5 μM was added.

[3] = tested on: Human recombinant HIV reverse transcriptase; experiment: Effect of unmodified and ADP-ribosylated ADPRT on HIV reverse transcriptase activity (FIG. 1, Example 2)
Experimental: The basic assay system for measurement of reverse transcriptase activity is described in Example 1. Human recombinant HIV reverse transcriptase used in the assay was obtained from HIV, ERC Bioservices. ADPRT used in this experiment is highly purified ADPRT protein prepared according to Anal. Biochem., 167:160 (1987). ADPRT was added to the reverse transcriptase assay system at various concentrations ranging from 0.01 to 1 μM. When the effect of […], pre-ADP-ribosylated ADPRT was assayed, the ADPRT enzyme was incubated with NAD and cofactors according to FEBS Letters, 212:73 (1987). The poly ADP-ribosylated ADPRT was isolated by centricon ultrafiltration and added in various concentration as shown in FIG. 1.
as §1, §2, §3
A small amount (300 μg) of ADPRT (0.5 μM) of final concentration was incubated with 100 mM NAD in 3 ml of 25 mM Tris-HCl (pH 7.4), 0.3% Tween 20 at 25° C. for three hours to render the protein auto-poly (ADP-ribosyl)ated, then concentrated to 3 mg/ml. Using generally the reverse transcriptase assay conditions as described in Example 1, the effect of automodified and unmodified ADPRT was monitored.

Compound: adenosine diphosphoribosyl transferase [ADPRT]
- depression/inhibition of reverse transcriptase activity [1]: about 50%
- activity of reverse transcriptase ([2]; 0.5 μM pure ADPRT only (column 4)): about 50%
- inhibition of reverse transcriptase activity ([3]; 0.05 μM pure ADPRT): 10%
- effect on reverse transcription (FIG. 1 summary) ([3]; 0.01 to 1 μM added to RT assay): inhibits RT in a concentration-dependent manner
- inhibition of reverse transcriptase ([3]; around 1-1.3 μM ADPRT): 75-80%
- activity of reverse transcriptase ([3]; around 1-1.3 μM ADPRT, control 100%): about 20%

- reverse transcriptase activity ([2]; 0.5 μM ADPRT + 62.5 μM NAD + 6-ABP 1000 μM): about 60%
- activity of reverse transcriptase ([2]; 0.5 μM ADPRT + 6-ABP 1000 μM): only very slightly
- activity of reverse transcriptase ([2]; 0.5 μM ADPRT + 6-ABP 1000 μM, 1000 µM): about 50%
- HIV reverse transcriptase activity ([2]; 6-ABP 1000 μM): did not affect
Compound: Nc1ccc2oc(=O)ccc2c1 [6-ABP, 6-amino-1,2-benzopyrone]

- activity of reverse transcriptase ([2]; 0.5 μM ADPRT + 62.5 μM NAD + 5-I-6-ABP 400 μM (column 9)): the same as the one seen in column 6
- activity of reverse transcriptase ([2]; 0.5 μM ADPRT + 5-I-6-ABP 400 μM): only very slightly
- activity of reverse transcriptase ([2]; 0.5 μM ADPRT + 5-I-6-ABP 400 μM, listed as 5-I-ABP, 400 µM): about 50%
- HIV reverse transcriptase activity ([2]; 5-I-6-ABP 400 μM): did not affect
Compound: Nc1ccc2oc(=O)ccc2c1I [5-I-6-ABP, 5-iodo-6-amino-1,2-benzopyrone]
